The values that follow are results of earlier work, collected in patent US20260226019A1, “NEGATIVE ALLOSTERIC MODULATORS OF METABOTROPIC GLUTAMATE RECEPTOR 2” (Vanderbilt University, priority 2023, published 2026).

Where two headings read alike, the source gives them in different places.

Data set [1] deals with mGlu2/3 receptor. The settings on record: rat forced swim test, normal animals; cited from earlier work.
The subject of data set [2] is mGlu2/3 receptor. The settings on record: mouse tail-suspension test, normal animals; cited from earlier work.
For data set [3], the system named is mGlu2/3 receptor. The settings on record: learned helplessness test; treatment for 7 days; cited from earlier work.
The conditions of data set [4]: olfactory bulbectomized rats; repeated administration for 14 days; cited from earlier work.
The conditions of data set [5]: social isolation reared mice; cited from earlier work.
The next data set concerns group II mGlu receptors. Particulars: treated mice; cited from earlier work.
The subject of data set [6] is group II mGlu receptors (mGlu2 and mGlu3). Particulars: CFS model; cited from earlier work.
The conditions of data set [7]: helpless mice; chronic (21 days) treatment; cited from earlier work.
The conditions of data set [8]: dominant-submissive test; cited from earlier work.

For the compound `N[C@]1(C(=O)O)[C@H]2[C@@H](C[C@H]1OCc1ccc(Cl)c(Cl)c1)[C@]2(F)C(=O)O` [MGS0039], the antidepressant-like effects result in the data set with mGlu2/3 receptor [1] is on record as “Antidepressant-like effects”. Besides, the antidepressant-like effects entry with mGlu2/3 receptor [2] is given as “Antidepressant-like effects”. Moreover, the “number of escape failures” value in the data set on mGlu2/3 receptor [3] is “significantly reduced”. In addition, in data set [4], the “hyperactivity in the open field test” value was “attenuated” and the “learning deficit in the passive avoidance test” value is “attenuated”. Also, in data set [5], the “increased immobility in the FST” value is “reversed”. Also, in the data set with group II mGlu receptors, the marble-burying behavior result is “reduced marble-burying behavior in a significant and dose dependent manner”; the spontaneous locomotor activity result is given as “no significant change”. Besides, the freezing behavior entry in data set [6] is listed as “significantly decreased”.

Turning to `CNCCC(Oc1ccc(C(F)(F)F)cc1)c1ccccc1` (centres unmarked) [fluoxetine], in [7], the antidepressant effect result was “full antidepressant effect”. For the same compound, in data set [8], the onset of effects entry is “after two weeks”.
